Experimental data published in the NIST ThermoML archive (doi:10.1021/je400536f).
Numbers after ± are expanded uncertainties.

Key:
[1] = mn = molality of the nth substance listed, in mol/kg; conditions: 298.15 K, 100 kPa, Liquid, dip-type immersion conductivity cell
[2] = 298.15 K, 100 kPa, Liquid

CCCC[N+](CCCC)(CCCC)CCCC.[O-][Cl+3]([O-])([O-])[O-] [tetrabutylammonium perchlorate] + NC=O
[1]
Conditions	molar conductivity [S·m2/mol]
m1 = 0.000807	0.00312 ± 9e-05
m1 = 0.001498	0.0029 ± 8e-05
m1 = 0.002061	0.00278 ± 7.1e-05
m1 = 0.002673	0.00264 ± 6.6e-05
m1 = 0.003238	0.00255 ± 6.1e-05
m1 = 0.003856	0.00244 ± 5.9e-05
m1 = 0.004665	0.00231 ± 5.5e-05
m1 = 0.005242	0.00224 ± 5.1e-05
m1 = 0.006209	0.00212 ± 4.8e-05
m1 = 0.007157	0.00202 ± 4.4e-05
m1 = 0.00801	0.00196 ± 4.3e-05
m1 = 0.008612	0.00189 ± 4.3e-05

CCCC[N+](CCCC)(CCCC)CCCC.F[B-](F)(F)F [tetrabutylammonium tetrafluoroborate] + C[N+](=O)[O-]
[1]
Conditions	molar conductivity [S·m2/mol]
m1 = 0.000773	0.00833 ± 0.00022
m1 = 0.001303	0.00794 ± 0.00021
m1 = 0.001731	0.00765 ± 0.00019
m1 = 0.002372	0.00735 ± 0.00017
m1 = 0.002927	0.00709 ± 0.00016
m1 = 0.003576	0.00684 ± 0.00016
m1 = 0.004134	0.0066 ± 0.00015
m1 = 0.004914	0.0064 ± 0.00014
m1 = 0.005655	0.00617 ± 0.00014
m1 = 0.006577	0.00594 ± 0.00013
m1 = 0.007569	0.00568 ± 0.00012
m1 = 0.008556	0.00543 ± 0.00012

CNC=O [N-methylformamide]
[2]
Conditions	mass density [kg/m3]	viscosity [mPa·s]
Concentric cylinders viscometry	–	1.65 ± 0.07
Vibrating tube method	997.61 ± 5.4	–

CCCC[N+](CCCC)(CCCC)CCCC.[O-][Cl+3]([O-])([O-])[O-] [tetrabutylammonium perchlorate] + C[N+](=O)[O-]
[1]
Conditions	molar conductivity [S·m2/mol]
m1 = 0.000864	0.0101 ± 0.00023
m1 = 0.001347	0.0098 ± 0.00022
m1 = 0.001806	0.00954 ± 0.00021
m1 = 0.00243	0.00927 ± 0.00021
m1 = 0.002992	0.00899 ± 0.0002
m1 = 0.003528	0.00879 ± 0.00019
m1 = 0.004186	0.00854 ± 0.00018
m1 = 0.004998	0.00831 ± 0.00018
m1 = 0.005715	0.00809 ± 0.00017
m1 = 0.006642	0.00777 ± 0.00017
m1 = 0.007639	0.00753 ± 0.00016
m1 = 0.008668	0.00731 ± 0.00015
